One block for each compound: values may come before it.
Tests used:
[1] = Photoracemization in ethanol in a 400-mL photoreactor with 450 W UV lamp, e.e. by enantioselective HPLC; type: physicochemical
Experimental: The mixture was irradiated and aliquots were taken at about time=0, 12, 24, 41, 60, 87, 105, 135, and 162 minutes and analyzed by HPLC.
The natural logarithm of e.e. at each time point was determined for each aliquot.
Half-lives (minutes) and specific half-lives (minutes per gram) were calculated for each concentration.
(§1) Using the procedure of Example (E), 10-g of (R)-8-ethyl-6-trifluoromethoxy-2-trifluoromethyl-2H-chromene-3-carboxylic acid was dissolved in 400 mL of ethanol to a concentration of 25-mg/mL, and the mixture was filtered to remove a small amount of insoluble material. The filtrate was placed in the photoreactor and irradiated.
as §1, with “(R)-6,8-dimethyl-2-trifluoromethyl-2H-chromene-3-carboxylic” for “(R)-8-ethyl-6-trifluoromethoxy-2-trifluoromethyl-2H-chromene-3-carboxylic”

[2] = Photoracemization in ethanol in a quartz cuvette under a UV spot lamp, e.e. by enantioselective HPLC; type: physicochemical; details: for e.e. by HPLC after irradiation: 50-mg/mL in ethanol, start 21% e.e. of (S), 4 W/cm^2; for ln (e.e.): 66.7-mg/mL in ethanol
Experimental: Using a column with 0.46 cm inner diameter and 250 mm length filled with […]® AD stationary phase, a 10 μL injection volume, by eluting at room temperature with mobile phase (volume proportions) 95%/5% heptane:ethanol with 0.1% trifluoroacetic acid, at room temperature, flow rate at 1 mL/minute isocratic, and detected with a photodiode array detector at 254 nm wavelength, and a run time of 10 minutes.
A 1.0-mg/mL solution of (S)-6-chloro-7-tert-butyl-2-trifluoromethyl-2H-chromene-3-carboxylic acid in ethanol was placed in a quartz cuvette and irradiated with light from a UV spot lamp that produced a 5 mm diameter spot of UV light (320-390 nm wavelength) at 4 W/cm^2 intensity.
The first aliquot was placed in a quartz cuvette and irradiated in 90-second intervals over 25 minutes with light from a UV spot lamp that produced a 5 mm diameter spot of UV light (320-390 nm wavelength) at 4 W/cm^2 intensity to give a solution with 7.4% e.e. by HPLC. The second aliquot was placed in a quartz cuvette and irradiated continuously over 25 minutes with light from the UV spot lamp to give a solution with 12% e.e. by HPLC.
A 40-mg/mL solution of (S)-6-chloro-7-tert-butyl-2-trifluoromethyl-2H-chromene-3-carboxylic acid in ethanol was placed in a quartz cuvette and irradiated with light from a UV spot lamp that produced a 5 mm diameter spot of UV light (320-390 nm wavelength) at 4 W/cm^2 intensity. Aliquots were taken at time=0, 1, 2, 4, 8, 12, and 16 minutes and analyzed by HPLC. The experiment was repeated. A rate constant k for each of the two experiments (k1 and k2) was calculated using the following equation: [formula] wherein t is the time in minutes, C is the concentration of chromene in moles per liter, and ln (e.e.) is the natural logarithm of percent enantiomeric excess. The rate constant k1 was 0.0764/minute and k2 was 0.0787/minute. A half-live τ for each of the two experiments (τ1 and τ2) was calculated using the following equation: [formula] […] A specific half-life of about 30 minutes per gram of enantiomer was calculated.
The procedure of Example (C) was repeated except the concentration of (S)-6-chloro-7-tert-butyl-2-trifluoromethyl-2H-chromene-3-carboxylic acid in ethanol was 66.7-mg/mL. Aliquots were taken at time=0, 1, 2, 4, 8, 12, and 16 minutes and analyzed by HPLC. The natural logarithm of e.e. at each time point was determined for each aliquot. […] The natural logarithm of e.e. data is provided below in Table 1 in the row labeled “ln (e.e.).”

[3] = 10-g in 400 mL ethanol, 25-mg/mL, t=5 minutes

Structure (SMILES): CC(C)(C)c1cc2c(cc1Cl)C=C(C(=O)O)[C@H](C(F)(F)F)O2 [(R)-6-chloro-7-tert-butyl-2-trifluoromethyl-2H-chromene-3-carboxylic acid]
- τ ([1]; 4.00 g enantiomer, 10.0 mg/mL in ethanol): 9.08 min
- τ ([1]; 8.00 g enantiomer, 20.0 mg/mL in ethanol): 16.38 min
- τ ([1]; 10.00 g enantiomer, 25.00 mg/mL in ethanol): 19.68 min
- τ ([1]; 13.00 g enantiomer, 32.5 mg/mL in ethanol): 22.57 min
- τ ([1]; 16.00 g enantiomer, 40.0 mg/mL in ethanol, from Example (E)): 31.65 min
- rate constant k ([1]; 16 g in 400 mL ethanol, 40-g/L): 0.0109 min⁻¹
- τ ([1]; 20.04 g enantiomer, 50.1 mg/mL in ethanol): 31.39 min
- ln (e.e.) ([1]; 40-g/L in ethanol, time 0 minutes): 4.5
- ln (e.e.) ([1]; 40-g/L in ethanol, time 12 minutes): 4.3
- ln (e.e.) ([1]; 40-g/L in ethanol, time 24 minutes): 4.0
- ln (e.e.) ([1]; 40-g/L in ethanol, time 41 minutes): 3.6
- ln (e.e.) ([1]; 40-g/L in ethanol, time 60 minutes): 3.2
- ln (e.e.) ([1]; 40-g/L in ethanol, time 87 minutes): 2.7
- ln (e.e.) ([1]; 40-g/L in ethanol, time 105 minutes): 2.2
- ln (e.e.) ([1]; 40-g/L in ethanol, time 135 minutes): 1.6
- ln (e.e.) ([1]; 40-g/L in ethanol, time 162 minutes): 1.1

Structure (SMILES): Cc1cc(C)c2c(c1)C=C(C(=O)O)[C@H](C(F)(F)F)O2 [(R)-6,8-dimethyl-2-trifluoromethyl-2H-chromene-3-carboxylic acid]
- ln (e.e.) [1, 3]: about 4.2
- ln (e.e.) ([1]; 10-g in 400 mL ethanol, 25-mg/mL, t=105 minutes): about 1.0

Results, then the compound that gave them:

- ln (e.e.) [1, 3]: about 4.3
- ln (e.e.) ([1]; 10-g in 400 mL ethanol, 25-mg/mL, t=95 minutes): about 1.4
Structure (SMILES): CCc1cc(OC(F)(F)F)cc2c1O[C@@H](C(F)(F)F)C(C(=O)O)=C2 [(R)-8-ethyl-6-trifluoromethoxy-2-trifluoromethyl-2H-chromene-3-carboxylic acid]

- e.e. by HPLC after irradiation ([2]; irradiated continuously over 25 minutes): 12%
- e.e. by HPLC after irradiation ([2]; irradiated in 90-second intervals over 25 minutes): 7.4%
Structure (SMILES): CC(C)(C)c1cc2c(cc1Cl)C=C(C(=O)O)C(C(F)(F)F)O2 [(S)- and (R)-6-chloro-7-tert-butyl-2-trifluoromethyl-2H-chromene-3-carboxylic acid]

- HPLC finding after UV irradiation ([2]; 1.0-mg/mL in ethanol, UV 320-390 nm at 4 W/cm^2, after 30 minutes): racemic mixture
- rate constant k1 ([2]; 40-mg/mL in ethanol, first experiment): 0.0764 min⁻¹
- rate constant k2 ([2]; 40-mg/mL in ethanol, repeated experiment): 0.0787 min⁻¹
- ln (e.e.) ([2]; time 0 minutes): 4.4
- ln (e.e.) ([2]; time 1 minute): 4.3
- ln (e.e.) ([2]; time 2 minutes): 4.2
- ln (e.e.) ([2]; time 4 minutes): 4.0
- ln (e.e.) ([2]; time 8 minutes): 3.8
- ln (e.e.) ([2]; time 12 minutes): 3.4
- ln (e.e.) ([2]; time 16 minutes): 3.3
Structure (SMILES): CC(C)(C)c1cc2c(cc1Cl)C=C(C(=O)O)[C@@H](C(F)(F)F)O2 [(S)-6-chloro-7-tert-butyl-2-trifluoromethyl-2H-chromene-3-carboxylic acid]
